Data reported in PMC7153038, “Pharmacologic inhibition of RGD‐binding integrins ameliorates fibrosis and improves function following kidney injury” (Physiological Reports, 2020).
Read-outs that look alike come from different tables or passages of the source.

What was measured:
integrin αvβ6 = integrin αvβ6 (Homo sapiens, UniProt P06756+P18564); experiment: integrin αvβ6-mediated cell attachment to ligand; type: cell-based; details: mean and SD, at least 3 independent assays, read-out: IC50, inhibition of αvβ6-mediated cell attachment
integrin αvβ6, sequence (P06756 31-889 limits assumed): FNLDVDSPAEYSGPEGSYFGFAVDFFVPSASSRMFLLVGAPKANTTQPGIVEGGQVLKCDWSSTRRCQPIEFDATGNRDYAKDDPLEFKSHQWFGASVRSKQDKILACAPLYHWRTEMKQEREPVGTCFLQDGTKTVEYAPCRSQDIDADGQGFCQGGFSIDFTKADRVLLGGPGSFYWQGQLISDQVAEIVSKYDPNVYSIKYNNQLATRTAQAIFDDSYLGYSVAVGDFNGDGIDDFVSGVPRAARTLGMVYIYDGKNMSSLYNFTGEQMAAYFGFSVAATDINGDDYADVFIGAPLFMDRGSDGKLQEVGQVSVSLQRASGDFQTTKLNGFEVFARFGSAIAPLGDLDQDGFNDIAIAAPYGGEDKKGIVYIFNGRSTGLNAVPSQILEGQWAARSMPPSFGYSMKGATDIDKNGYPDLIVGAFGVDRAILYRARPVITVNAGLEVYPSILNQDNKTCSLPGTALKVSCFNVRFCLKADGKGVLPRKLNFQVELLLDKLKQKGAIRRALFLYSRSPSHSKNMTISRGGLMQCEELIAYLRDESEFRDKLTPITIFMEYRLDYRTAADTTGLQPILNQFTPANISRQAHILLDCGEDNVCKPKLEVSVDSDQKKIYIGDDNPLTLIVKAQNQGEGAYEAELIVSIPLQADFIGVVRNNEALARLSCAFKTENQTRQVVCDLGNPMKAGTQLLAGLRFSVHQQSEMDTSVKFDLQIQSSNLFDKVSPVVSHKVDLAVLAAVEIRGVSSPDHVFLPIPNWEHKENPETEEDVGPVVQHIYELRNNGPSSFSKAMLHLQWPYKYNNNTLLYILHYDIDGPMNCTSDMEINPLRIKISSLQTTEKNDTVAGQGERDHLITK
integrin αvβ6, sequence (P06756 891-1048 partner limits assumed): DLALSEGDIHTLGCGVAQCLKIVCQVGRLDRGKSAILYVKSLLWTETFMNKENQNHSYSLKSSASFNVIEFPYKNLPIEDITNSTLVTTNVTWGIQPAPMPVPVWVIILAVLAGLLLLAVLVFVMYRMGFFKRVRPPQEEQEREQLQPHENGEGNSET
integrin αvβ6, sequence (P18564 22-788): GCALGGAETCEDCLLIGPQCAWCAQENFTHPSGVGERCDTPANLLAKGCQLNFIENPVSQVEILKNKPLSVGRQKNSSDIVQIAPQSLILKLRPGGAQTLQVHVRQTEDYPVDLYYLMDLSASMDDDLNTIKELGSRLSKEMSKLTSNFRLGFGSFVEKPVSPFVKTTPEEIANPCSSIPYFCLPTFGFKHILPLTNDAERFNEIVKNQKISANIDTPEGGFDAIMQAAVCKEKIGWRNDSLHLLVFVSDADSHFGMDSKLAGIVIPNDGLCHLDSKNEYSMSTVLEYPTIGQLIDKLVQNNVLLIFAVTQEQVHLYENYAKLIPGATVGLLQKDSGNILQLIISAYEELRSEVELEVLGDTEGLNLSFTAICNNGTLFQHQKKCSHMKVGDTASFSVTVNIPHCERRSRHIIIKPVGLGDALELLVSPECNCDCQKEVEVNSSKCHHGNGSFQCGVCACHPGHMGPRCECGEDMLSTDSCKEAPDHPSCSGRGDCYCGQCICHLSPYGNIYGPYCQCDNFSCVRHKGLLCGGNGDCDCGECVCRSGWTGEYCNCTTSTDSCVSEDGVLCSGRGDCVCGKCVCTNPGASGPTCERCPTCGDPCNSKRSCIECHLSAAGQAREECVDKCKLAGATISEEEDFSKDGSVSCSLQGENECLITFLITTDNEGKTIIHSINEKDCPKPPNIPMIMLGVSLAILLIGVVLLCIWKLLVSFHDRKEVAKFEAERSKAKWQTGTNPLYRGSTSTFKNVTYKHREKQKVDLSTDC
Description: The RGD peptidomimetic CWHM‐12 was synthesized as described in detail previously (Henderson et al., 2013). A close structural analog of this compound with improved oral bioavailability, CWHM‐680, was also synthesized at Saint Louis University. Potency for the compounds in blocking cell attachment mediated by integrins αvβ3, αvβ5, and αvβ6 was measured as previously described (Henderson et al., 2013). Potency for blocking cell attachment mediated by integrins αvβ1, αvβ8, and α8β1 was measured using modifications of this method which are briefly summarized as follows: To assess CWHM‐12 and CWHM‐680 effects on cellular αvβ1 function, we varied its concentration in an assay measuring binding of HEK‐293 cells, which naturally express this integrin (Nagarajan et al., 2007), to the surface of 96‐well plates coated with purified recombinant human TGFβ‐1 latency‐associated peptide (R&D Systems). To assess the effect on cellular αvβ8 function, we performed the assay with the same LAP ligand but with HEK‐293 cells which had been stably transfected to overexpress this integrin. To assess the effect on cellular α8β1 function, we performed the assay using HEK‐293 cells, which had been stably transfected to overexpress this integrin and used purified recombinant mouse nephronectin as the immobilized ligand (R&D Systems). […]

[1] = system: aristolochic acid-induced kidney fibrosis in ICR mice; experiment: aristolochic acid kidney injury model, kidney histology and immunofluorescence; type: in vivo, mouse; details: AA-injured, 100 mg/kg/day s.c. minipump
Description: (§1) Alzet osmotic minipumps (Cupertino, CA) were implanted subcutaneously in 8‐ to 10‐week‐old wild‐type male ICR outbred mice (Envigo) one day prior to induction of kidney injury to deliver vehicle (DMSO/H2O 1:1) or CWHM‐12 at a dose of 100 mg/kg per day. A single 5 mg/kg dose of aristolochic acid I sodium salt (Sigma‐Aldrich, A9451) in PBS was administered intraperitoneally to induce kidney injury, and mice were monitored daily for 27 days thereafter. Control (uninjured) mice were injected with an equal volume of PBS. Blood was obtained by maxillary vein puncture on days 0, 5 (peak injury), and 28 (study endpoint). For testing CWHM‐680, oral gavage (100 mg/kg per day) was started one day prior to injection of aristolochic acid I sodium salt and continued once daily until the study endpoint. Blood was obtained at days 0, 7, and 23 (study endpoint). […] Serum creatinine was measured by liquid chromatography–mass spectrometry (LC–MS/MS) at the University of Alabama O’Brien Center Bioanalytical Core. CWHM‐12 and CWHM‐680 concentrations were measured in plasma samples by liquid chromatography–tandem mass spectrometry (LC/MS/MS) using compound spiked into control plasma as a standard. All experiments were performed under protocols approved by the Institutional Animal Care and Use Committee at St. Louis University.
Harvested kidneys were bisected and harvested for RNA and protein, and fixed in 4% PFA for antibody staining and histological staining with Sirius red or Masson's trichrome. Paraffin sections (4 µm) were stained with Sirius red or Masson trichrome and imaged with polarized light and bright‐field illumination. For immunofluorescence, 7‐μm frozen sections were washed with ice‐cold 100% methanol, boiled in 10 mM citric acid (pH 6) for 20 min, and incubated with primary antibodies against αSMA (Millipore), PDGFR‐β (gift from B. Stallcup), or with biotin‐LTL (Vector Laboratories). Reactivity was detected using fluorescently labeled secondary antibodies. Sections were counterstained with DAPI (Sigma‐Aldrich), mounted in Mowiol 4–88 (Poly Sciences), and digital images acquired using a Leica DM5000B epifluorescence microscope and Leica DFC365FX camera. To quantify percent area stained for Sirius red, PDGFR‐β, and α‐SMA, we analyzed images from each of at least 4 biological replicates by batch processing using a macro created in Image J. Images were converted to 8‐bit grayscale, the threshold adjusted, and percent area measured. To quantify intact proximal tubules with brush borders, LTL‐positive tubules were counted by an observer blinded to the experimental conditions using Image J.

[2] = system: aristolochic acid-induced kidney injury in ICR mice; experiment: aristolochic acid kidney injury model, serum creatinine; type: in vivo, mouse; details: AA-injured mice, 100 mg/kg/day s.c. minipump; vehicle 0.32
Description: as §1

Structure (SMILES): CC(C)(C)c1cc(Br)cc([C@H](CC(=O)O)NC(=O)CNC(=O)c2cc(O)cc(NC3=NCC(O)CN3)c2)c1 (some centres unmarked) [CWHM‐12]
- IC50 (integrin αvβ6; listed as CWHM−12): 0.31 ± 0.14 nM
- IC50 (integrin αvβ6): < 1 nM
- Masson trichrome staining, collagen deposition vs vehicle [1]: reduced collagen deposition
- reduction in percent area stained for PDGFR‐β vs vehicle [1]: 44%
- reduction in percent area stained for αSMA vs vehicle [1]: 45%
- reduction in percent area stained by Sirius red vs vehicle ([1]; day 27): 68%
- number of intact proximal tubules (LTL staining) ([1]; 27 days, vehicle 40.9 ± 1.6): 57.1 ± 1.7
- serum creatinine at day 27 [2]: 0.15 mg/dL
